Assay results from US20250127180A1, “PARTICLES COMPRISING DOUBLE STRANDED RNA AND USE OF SAME IN AGRICULTURE” (priority 2022, published 2025).

System: B. cinerea
Test: In-vitro fungal growth, O.D at 600 nm
Type: cell-based, Botrytis cinerea
Description: To test the effect of commonly used fungicide on B. cinerea growth, ‘Procloraz’ (Sportak, Bayer Cropscience LLC, Monheim am Rhein, Germany) or ‘fludioxonil’ (scholar, Hod-Hasharon, Israel) fungicide were diluted in 1% SMB to final concentrations of 1-1000 ppb or 0.01-1,000 ppb, respectively.
The plates were incubated at room temperature and O.D measurement at 600 nm was taken every hour for 48-72 hours using Synergy LX plate reader (BioTek, Winooski, Vermont, United States). The absorbance of three wells of repeats was averaged together and was background-corrected by subtracting the average absorbance of media alone at time zero (Galsurker et al., 2020; Langvad, 1999). Growth inhibition percentage was calculated (O.D in control well−O.D in treatment well)/O.D in control well×100) (Meletiadis et al., 2003). Coefficient treatment interaction (CTI) was calculated as follows: CTI=AB/(A×B). AB is the ratio of the treatment combination to control; A, or B is the ratio of the single treatment to control. Coefficient treatment interaction is considered as synergistic when CTI<1 (Chen et al., 2014).

`N#Cc1c[nH]cc1-c1cccc2c1OC(F)(F)O2` [Fludioxonil] was tested, and the B. cinerea growth (0.01-1,000 ppb, data not shown) was “reduced B. cinerea growth in a non-linear manner”.
For `CCCN(CCOc1c(Cl)cc(Cl)cc1Cl)C(=O)n1ccnc1` [Prochloraz, prochloraz], the “fungal growth (O.D)” value (1-1,000 ppb in growth media) was “dose-dependent reduction of fungal growth”.
For `CC(C)[C@@H](C)/C=C/[C@@H](C)[C@H]1CC[C@H]2C3=CC=C4C[C@@H](O)CC[C@]4(C)[C@H]3CC[C@]12C` [ergosterol], the fungal growth (ergosterol added to control) was “did not alter fungal growth”.
